From PMC6614837 (Nucleic Acids Research, 2019)

Target: T1, RNase P holoenzyme (Thermotoga maritima, UniProt Q9X1H4)
T1 construct: GST (cleaved yes); made in house; host or cells: E. coli BL21(DE3)pLysS
T1 sequence (Q9X1H4 1-117): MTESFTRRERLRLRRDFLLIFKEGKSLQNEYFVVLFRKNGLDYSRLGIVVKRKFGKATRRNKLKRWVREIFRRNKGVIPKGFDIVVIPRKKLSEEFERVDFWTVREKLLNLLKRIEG
Test: Biolayer interferometry binding to immobilized RNase P holoenzyme
Parameters: species or system T. maritima
Conditions: BLI, holoenzyme at 400 nM immobilized on Ni-NTA
Experimental: Real-time binding assays of the holoenzyme, P RNA, P protein, the substrate minihelix and the 5′-leader to individual compounds were performed by biolayer interferometry using an Octet RED96 system (ForteBio). For the holoenzyme or P RNA, a 5′ biotinylated RNA oligonucleotide with the sequence 5′biotin-CAUUCCAGACGAU was immobilized on Super Streptavidin (SSA) biosensors. Then, a modified P RNA or holoenzyme was added. The P RNA modification consisted of a sequence with part of the P1 stem sequence complementary to the biotinylated oligonucleotide (AUCGUCUGGA) (Supplementary Figure S23A). P1 is far from the active site or other regions involved in specific interactions (Supplementary Figure S23B) ([19]). The activity of this construct was indistinguishable from the wild-type holoenzyme. Alternatively, the holoenzyme was immobilized through the His-tagged P protein from T. maritima at 0.05 mg/ml (3.4 μM) on Ni-NTA biosensors. […] Kinetic binding parameters were calculated using Data Analysis 8.2 (ForteBio, Inc.). […]
Figure 4. […] Symbols represent the mean ± standard error as determined from three independent experiments at each concentration. […] RNase P holoenzyme was immobilized on Ni-NTA biosensors, incubated with purpurin at varying concentrations (0–400 μM), and then the association and dissociation pre-tRNA was monitored. […]

`O=C1c2ccccc2C(=O)c2c(O)c(O)cc(O)c21` [Purpurin, 1,2,4-trihydroxyanthraquinone] was tested, and the Kd was 13.2 µM.
